The subject of this data set is rodent carcinogenicity bioassays, tumor incidence. The experiment in a line: CCRIS carcinogenicity studies. An outline of the steps:
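Archive of carcinogenicity, mutagenicity, tumor promotion and tumor inhibition results drawn from journals, NCI reports and other sources, expert-reviewed; covers 1985-2011 and is no longer updated.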

Activity calls are given as the source filed them. How the calls were made is not given here.

Carcinogen call data for six compounds are collected here from PubChem BioAssay AID1259411 (Chemical Carcinogenesis Research Information System (CCRIS), 2018).

For the compound `COC(=O)C(c1ccccc1)C1CCCCN1` (stereo not given), the carcinogen call is “active; positive” (Species: MOUSE, Strain/Sex: B6C3F1/FEMALE, Route: ORAL, Dose: 0, 50, 250, 500 PPM IN DIET FOR 2 YR (STUDY DURATION: 2 YR), Dose: 0, 50, 250, 500 PPM IN DIET FOR 2 YR (STUDY DURATION: 2 YR), Tumor Site: Type of Lesion: LIVER: HEPATOCELLULAR ADENOMA); “active; positive” (Species: MOUSE, Strain/Sex: B6C3F1/MALE, Route: ORAL, Dose: 0, 50, 250, 500 PPM IN DIET FOR 2 YR (STUDY DURATION: 2 YR), Dose: 0, 50, 250, 500 PPM IN DIET FOR 2 YR (STUDY DURATION: 2 YR), Tumor Site: Type of Lesion: LIVER: HEPATOCELLULAR ADENOMA, HEPATOBLASTOMA); “inactive; negative” (Species: RAT, Strain/Sex: F344/FEMALE, Route: ORAL, Dose: 0, 100, 500, 1000 PPM IN DIET FOR 2 YR (STUDY DURATION: 2 YR), Dose: 0, 100, 500, 1000 PPM IN DIET FOR 2 YR (STUDY DURATION: 2 YR)); “inactive; negative” (Species: RAT, Strain/Sex: F344/MALE, Route: ORAL, Dose: 0, 100, 500, 1000 PPM IN DIET FOR 2 YR (STUDY DURATION: 2 YR), Dose: 0, 100, 500, 1000 PPM IN DIET FOR 2 YR (STUDY DURATION: 2 YR)).
On to `COc1cccc2c1cc([N+](=O)[O-])c1c(C(=O)O)cc3c(c12)OCO3` (tested in a mixture with another compound), for which the carcinogen call reads like this: (Species: RAT, Strain/Sex: WISTAR/FEMALE, Route: GAVAGE, Dose: 0.1, 1.0, 10 MG/KG/D, 7 D/WK FOR 3 MO (LOW DOSE ALSO GIVEN FOR 6 OR 12 MO), Dose: 0.1, 1.0, 10 MG/KG/D, 7 D/WK FOR 3 MO (LOW DOSE ALSO GIVEN FOR 6 OR 12 MO), Tumor Site: Type of Lesion: FORESTOMACH: PAPILLOMA, CARCINOMA) “active; positive”; (Species: RAT, Strain/Sex: WISTAR/MALE, Route: GAVAGE, Dose: 0.1, 1.0, 10 MG/KG/D, 7 D/WK FOR 3 MO (LOW DOSE ALSO GIVEN FOR 6 OR 12 MO), Dose: 0.1, 1.0, 10 MG/KG/D, 7 D/WK FOR 3 MO (LOW DOSE ALSO GIVEN FOR 6 OR 12 MO), Tumor Site: Type of Lesion: FORESTOMACH: PAPILLOMA, CARCINOMA, URINARY BLADDER: PAPILLOMA, CARCINOMA, KIDNEY: CARCINOMA, Tumor Site: Type of Lesion: FORESTOMACH: PAPILLOMA, CARCINOMA, URINARY BLADDER: PAPILLOMA, CARCINOMA, KIDNEY: CARCINOMA) “active; positive”.
Consider `CC(=O)CN(N=O)C(=O)NCCCl`, for which the carcinogen call reads like this: (Species: RAT, Strain/Sex: F344/FEMALE, Route: GAVAGE, Dose: 0, 11.5 MG/ML IN CORN OIL/ETHYL ACETATE (2:1) 2/WK FOR 30 WK (STUDY DURATION: LIFETIME), Tumor Site: Type of Lesion: LIVER: TUMOR) “active; positive”; (Species: RAT, Strain/Sex: F344/FEMALE, Route: ORAL, Dose: 0, 46 MG/L IN DRINKING WATER 5 D/WK FOR 30 WK (STUDY DURATION: LIFETIME)) “inactive; negative”; (Species: RAT, Strain/Sex: F344/MALE, Route: GAVAGE, Dose: 0, 11.5 MG/ML IN CORN OIL/ETHYL ACETATE (2:1) 2/WK FOR 30 WK (STUDY DURATION: LIFETIME), Tumor Site: Type of Lesion: NERVOUS SYSTEM: TUMOR, SMALL INTESTINE: TUMOR) “active; positive”; (Species: RAT, Strain/Sex: F344/MALE, Route: ORAL, Dose: 0, 46 MG/L IN DRINKING WATER 5 D/WK FOR 30 WK (STUDY DURATION: LIFETIME), Tumor Site: Type of Lesion: LUNG: TUMOR, SKIN: TUMOR) “active; positive”.
Turning to `C=CCc1ccc(O)c(OC)c1`, the carcinogen call runs as follows: (Species: MOUSE, Strain/Sex: B6C3F1/FEMALE, Route: ORAL, Dose: 0, 3000, 6000 PPM IN DIET FOR 103 WK (STUDY DURATION: 103 WK), Dose: 0, 3000, 6000 PPM IN DIET FOR 103 WK (STUDY DURATION: 103 WK), Tumor Site: Type of Lesion: LIVER: HEPATOCELLULAR ADENOMA OR CARCINOMA) “equivocal”; (Species: MOUSE, Strain/Sex: B6C3F1/MALE, Route: ORAL, Dose: 0, 3000, 6000 PPM IN DIET FOR 103 WK (STUDY DURATION: 103 WK), Dose: 0, 3000, 6000 PPM IN DIET FOR 103 WK (STUDY DURATION: 103 WK), Tumor Site: Type of Lesion: LIVER: HEPATOCELLULAR ADENOMA, HEPATOCELLULAR CARCINOMA) “equivocal”; (Species: RAT, Strain/Sex: F344/FEMALE, Route: ORAL, Dose: 0, 6000, 12500 PPM IN DIET FOR 103 WK (STUDY DURATION: 103 WK), Dose: 0, 6000, 12500 PPM IN DIET FOR 103 WK (STUDY DURATION: 103 WK)) “inactive; negative”; (Species: RAT, Strain/Sex: F344/MALE, Route: ORAL, Dose: 0, 3000, 6000 PPM IN DIET FOR 103 WK (STUDY DURATION: 103 WK), Dose: 0, 3000, 6000 PPM IN DIET FOR 103 WK (STUDY DURATION: 103 WK)) “inactive; negative”.
`S=P(N1CC1)(N1CC1)N1CC1`: the carcinogen call is, setting by setting: (Species: MOUSE, Strain/Sex: B6C3F1/FEMALE, Route: INTRAPERITONEAL, Dose: 0, 1.15, 2.3 MG/KG 3/WK FOR 43-52 WK (STUDY DURATION: 86-87 WK), Dose: 0, 1.15, 2.3 MG/KG 3/WK FOR 43-52 WK (STUDY DURATION: 86-87 WK), Tumor Site: Type of Lesion: HEMATOPOIETIC SYSTEM (LEUKEMIA): LYMPHOCYTIC LEUKEMIA, LYMPHATIC SYSTEM: LYMPHOMA) “active; positive”; (Species: MOUSE, Strain/Sex: B6C3F1/MALE, Route: INTRAPERITONEAL, Dose: 0, 1.15, 2.3 MG/KG 3/WK FOR 52 WK (STUDY DURATION: 56-87 WK), Dose: 0, 1.15, 2.3 MG/KG 3/WK FOR 52 WK (STUDY DURATION: 56-87 WK), Tumor Site: Type of Lesion: INTEGUMENTARY SYSTEM (SKIN): SQUAMOUS CELL CARCINOMA, HEMATOPOIETIC SYSTEM (LEUKEMIA), LYMPHATIC SYSTEM: LYMPHOMA, EAR (, Tumor Site: Type of Lesion: INTEGUMENTARY SYSTEM (SKIN): SQUAMOUS CELL CARCINOMA, HEMATOPOIETIC SYSTEM (LEUKEMIA), LYMPHATIC SYSTEM: LYMPHOMA, EAR () “active; positive”; (Species: RAT, Strain/Sex: SPRAGUE-DAWLEY/FEMALE, Route: INTRAPERITONEAL, Dose: 0, 0.7, 1.4, 2.8 MG/KG 3/WK FOR 21-52 WK (STUDY DURATION: 21-87 WK), Dose: 0, 0.7, 1.4, 2.8 MG/KG 3/WK FOR 21-52 WK (STUDY DURATION: 21-87 WK), Tumor Site: Type of Lesion: MAMMARY GLAND: ADENOCARCINOMA, PITUITARY GLAND: CHROMOPHOBE ADENOMA) “active; positive”; (Species: RAT, Strain/Sex: SPRAGUE-DAWLEY/MALE, Route: INTRAPERITONEAL, Dose: 0, 0.7, 1.4, 2.8 MG/KG 3/WK FOR 19-52 WK (STUDY DURATION: 19-87 WK), Dose: 0, 0.7, 1.4, 2.8 MG/KG 3/WK FOR 19-52 WK (STUDY DURATION: 19-87 WK), Tumor Site: Type of Lesion: INTEGUMENTARY SYSTEM (SKIN): SQUAMOUS CELL CARCINOMA, INTEGUMENTARY SYSTEM (SUBCUTANEOUS TISSUE): SARCOMA, HEMATOPOIETIC, Tumor Site: Type of Lesion: INTEGUMENTARY SYSTEM (SKIN): SQUAMOUS CELL CARCINOMA, INTEGUMENTARY SYSTEM (SUBCUTANEOUS TISSUE): SARCOMA, HEMATOPOIETIC) “active; positive”.
For the compound `Cc1ccc(S(=O)(=O)Oc2ccc(N=Nc3ccc(-c4ccc(N=Nc5c(O)ccc6cc(S(=O)(=O)O)cc(S(=O)(=O)O)c56)c(C)c4)cc3C)cc2)cc1`, the carcinogen call was “active; positive” (Species: RAT, Strain/Sex: F344/FEMALE, Route: ORAL, Dose: 0, 150, 300, 600 PPM IN DRINKING WATER 7 D/WK FOR 104 WK (STUDY DURATION: 104 WK), Dose: 0, 150, 300, 600 PPM IN DRINKING WATER 7 D/WK FOR 104 WK (STUDY DURATION: 104 WK), Tumor Site: Type of Lesion: CLITORAL GLAND: ADENOMA OR CARCINOMA, LIVER: NEOPLASTIC NODULE OR HEPATOCELLULAR CARCINOMA, LUNG: ALVEOLAR/BRONCHIOLAR A, Tumor Site: Type of Lesion: CLITORAL GLAND: ADENOMA OR CARCINOMA, LIVER: NEOPLASTIC NODULE OR HEPATOCELLULAR CARCINOMA, LUNG: ALVEOLAR/BRONCHIOLAR A) and “active; positive” (Species: RAT, Strain/Sex: F344/MALE, Route: ORAL, Dose: 0, 70, 150, 300 PPM IN DRINKING WATER 7 D/WK FOR 104 WK (STUDY DURATION: 104 WK), Dose: 0, 70, 150, 300 PPM IN DRINKING WATER 7 D/WK FOR 104 WK (STUDY DURATION: 104 WK), Tumor Site: Type of Lesion: LIVER: NEOPLASTIC NODULE OR HEPATOCELLULAR CARCINOMA, SKIN: BASAL CELL ADENOMA, BASAL CELL CARCINOMA, KERATOACANTHOMA, S).
